Columns and labels:
[1] = system: Staphylococcus aureus ATCC 29213; test: Antibacterial broth dilution assay against S. aureus (modified CLSI); type: cell-based; details: for S. aureus IC50 / IC50: in vitro; for IC50: converted with molecular weight; for X more potent than ciprofloxacen: molar IC50 ratio versus ciprofloxacen
Description: (§1) General Experimental Procedures. All organisms were obtained from the American Type Culture Collection (Manassas, VA) and include the fungi Candida albicans ATCC 90028, C. glabrata ATCC 90030, C. krusei ATCC 6258, and Cryptococcus neoformans ATCC 90113, and the bacteria Staphylococcus aureus ATCC 29213 and methicillin-resistant S. aureus ATCC 33591 (MRS). All organisms were tested using modified versions of the CLSI (formerly NCCLS) methods. For all organisms, optical density was used to monitor growth (NCCLS, Reference Method for Broth Dilution Antifungal Susceptibility Testing of Yeasts; Approved Standard M27-A2. National Committee on Clinical Laboratory Standards, 2002 22 (15); and NCCLS, Methods for Dilution Antimicrobial Susceptibility Tests for Bacteria that Grow Aerobically; Approved Standard, Seventh Edition M7-A7. National Committee on Clinical Laboratory Standards, 2006. 26(2)).
(§2) Samples (dissolved in DMSO) were serially-diluted in 20% DMSO/saline and transferred (10 μL) in duplicate to 96 well flat bottom microplates. Inocula were prepared by correcting the OD630 of microbe suspensions in incubation broth [RPMI 1640/0.2% dextrose/0.03% glutamine/MOPS @ pH 6.0 (Cellgro) for Candida spp., Sabouraud Dextrose for C. neoformans, and cation-adjusted Mueller-Hinton (Difco) @ pH 7.3 for Staphylococcus spp. to afford an assay volume of […] and final target inocula of: Candida spp. and C. neoformans: 1.5×10^3, and Staphylococcus spp.: 5.0×10^5 CFU/ml. Final sample test concentrations were 1/100th the DMSO stock concentration. […] All organisms were read at either 530 nm using the Biotek Powerwave XS plate reader (Bio-Tek Instruments, Vermont) prior to and after incubation: Candida spp. at 35° C. for 46-50 h, Staphylococcus spp. at 35° C. for 16-20 h, and C. neoformans at 35° C. for 70-74 h. IC50s (concentrations that afford 50% inhibition relative to controls) were calculated using XLfit 4.2 software (IDBS, Alameda, CA) using fit model 201. The MIC is defined as the lowest test concentration that allows no detectable growth. Minimum fungicidal or bactericidal concentrations were determined by removing 5 μl from each clear (or blue) well, transferring to fresh media, and incubating as previously mentioned. The MFC/MBC is defined as the lowest test concentration that kills the organism (allows no growth).
(§3) Primary Analysis. Samples were tested in duplicate at one test concentration (50 μg/mL), and percent inhibitions were calculated relative to blank and growth controls. Samples showing 50% inhibition in at least one test organism were selected for dose response (Secondary) studies.
(§4) Secondary Analysis. Extracts from the Primary Assay, and first-run pure compounds and column fractions were tested in duplicate at 3 test concentrations (5-fold dilutions). Samples dissolved to 20 mg/mL in DMSO were tested at 200, 40, and 8 μg/mL. Samples dissolved to 2 mg/mL in DMSO were tested at 20, 4, and 0.8 μg/mL.

C. glabrata ATCC 90030 = test: Antifungal broth dilution assay against C. glabrata (modified CLSI); type: cell-based, Candida glabrata; details: for C. glabrata IC50 / IC50: in vitro; for IC50: converted with molecular weight; for X more potent than Amphotericin B: molar IC50 ratio versus amphotericin B
In short: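 Growth read by optical density at 530 nm, duplicate wells, 1% final DMSO. Staphylococcus spp.: Mueller-Hinton pH 7.3, 5.0×10^5 CFU/ml, 35 °C for 16-20 h; Candida spp.: RPMI/dextrose/glutamine/MOPS pH 6.0, 1.5×10^3 CFU/ml, 35 °C for 46-50 h. Reported values are 50% inhibition versus controls, no-growth MIC, and killing MFC/MBC.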

[2] = system: Cryptococcus neoformans ATCC 90113; test: Antimicrobial microdilution assay against Cryptococcus neoformans (modified CLSI/NCCLS, optical density); type: cell-based; details: for X more potent than Amphotericin B: C. neoformans, ratio of molar IC50 to Amphotericin B; for C. neoformans IC50 / IC50: in vitro, C. neoformans ATCC 90113; for IC50: read-out: C. neoformans IC50 (mol/L)
In short: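 Fungicidal endpoint taken by subculturing 5 μL from each clear well onto agar, MFC being the lowest concentration with no regrowth. Duplicate wells of serially diluted compound (20% DMSO/saline) in RPMI pH 6.0, read at 630 nm pre- and post-incubation, under modified CLSI methods. IC50 means 50% growth inhibition against controls.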

C. krusei ATCC 6258 = test: Antifungal broth dilution assay against C. krusei (modified CLSI); type: cell-based, Candida krusei; details: for X more potent than Amphotericin B: C. krusei, ratio of molar IC50 to amphotericin B; for C. krusei IC50 / IC50: in vitro; for IC50: read-out: C. krusei IC50 (mol/L)
Description: as §1, §2, §3, §4

[3] = system: L. donovani promastigotes; test: Antileishmanial Alamar Blue assay on promastigotes; type: cell-based, Leishmania donovani; details: for X more potent than Pentamidine: L. donovani, ratio of molar IC50 to Pentamidine; for L. donovani IC50 / IC50: promastigotes, 48 hours, Alamar Blue; for IC50: read-out: L. donavani IC50
In short: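 Alamar Blue fluorescence (544/590 nm) quantified growth after 48 hours at 26° C of compound-treated promastigotes. Parasites were seeded at 5×10^5/mL in RPMI 1640 plus 10% FCS; drug range 50-3.1 μg/mL, and IC50 derived by plotting percent growth against test concentration.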

[4] = system: methicillin-resistant S. aureus ATCC 33591 (MRS); test: Antibacterial broth dilution assay against MRSA (modified CLSI); type: cell-based, Staphylococcus aureus; details: for MRSa IC50 / IC50: in vitro; for X more potent than ciprofloxacen: molar IC50 ratio versus ciprofloxacen; for IC50: converted with molecular weight
Description: as §1, §2, §3, §4

| Compound | S. aureus IC50 [1] [µg/mL] | IC50 [1] [µM] | X more potent than ciprofloxacen [1] | C. glabrata IC50 (C. glabrata ATCC 90030) [µg/mL] | IC50 (C. glabrata ATCC 90030) [µM] | X more potent than Amphotericin B (C. glabrata ATCC 90030) | X more potent than Amphotericin B [2] | C. neoformans IC50 [2] [µg/mL] | IC50 [2] [nM] | X more potent than Amphotericin B (C. krusei ATCC 6258) | C. krusei IC50 (C. krusei ATCC 6258) [µg/mL] | IC50 (C. krusei ATCC 6258) [µM] | X more potent than Pentamidine [3] | L. donovani IC50 [3] [µg/mL] | IC50 [3] [µM] | MRSa IC50 [4] [µg/mL] | X more potent than ciprofloxacen [4] | IC50 [4] [µM] |
| --- | --- | --- | --- | --- | --- | --- | --- | --- | --- | --- | --- | --- | --- | --- | --- | --- | --- | --- |
| [Co2(m-cyclam-homocyclen)(OAc)2][PF6]2 [AW049] | 5.600 | 5.12 | 0.05 | 1.217 | 1.11 | 1.28 | 1.67 | 0.156 | 142 | 0.25 | 6.520 | 5.96 | 0.34 | 16.93 | 15.5 | – | – | – |
| CC(=O)[O-].F[P-](F)(F)(F)(F)F.[Zn+2].c1ccc(CN2CCCN3CCCN(CCCN(Cc4ccccc4)CC3)CC2)cc1 [DJD23, [Zn(Bn2PBCyclam)(OAc)]PF6] | 6.530 | – | 0.03 | – | – | – | 0.08 | 1.990 | – | – | – | – | 0.85 | 4.32 | – | 3.210 | 0.05 | – |
| CC(=O)[O-].F[P-](F)(F)(F)(F)F.[Co+2].c1ccc(CN2CCCN3CCCN(CCCN(Cc4ccccc4)CC3)CC2)cc1 [DJD21, [Co(Bn2PBCyclam)(OAc)]PF6] | 3.590 | 5.25 | 0.05 | – | – | – | 0.05 | 3.510 | 5140 | – | – | – | 0.26 | 14.12 | 20.7 | 3.710 | 0.04 | 5.43 |
| [Cu(Bn2PBCyclam)(OAc)]PF6•5H2O [BME10B] | 5.670 | 7.73 | 0.04 | – | – | – | 0.01 | 13.810 | 18800 | – | – | – | 1.07 | 3.64 | 4.96 | 5.350 | 0.03 | 7.3 |
| c1ccc(CN2CCN3CCN(CC2)CCN(Cc2ccccc2)CC3)cc1 [ANCl4] | 8.810 | 23.3 | 0.01 | – | – | – | – | – | – | – | – | – | – | – | – | 8.570 | 0.01 | 22.6 |
| [Fe(Bn2PBCyclen)(C2H3O2)]PF6•1.2NH4PF6 [AW037] | 4.940 | 5.83 | 0.05 | – | – | – | 0.02 | 8.400 | 9900 | – | – | – | 0.17 | 26.63 | 31.4 | 9.480 | 0.02 | 11.2 |
| c1ccc(CN2CCCN3CCCN(CCCN(Cc4ccccc4)CC3)CC2)cc1 [SLK09, Bn2PBCyclam] | 2.270 | 5.4 | 0.05 | – | – | – | 0.11 | 0.910 | 2160 | – | – | – | 0.87 | 2.56 | 6.09 | 4.960 | 0.02 | 11.8 |
| [Ni2(m-cyclam-homocyclen)(OAc)2][PF6]2•H2O [AW050] | 8.540 | 7.68 | 0.04 | – | – | – | 0.25 | 1.040 | 935 | – | – | – | 0.36 | 16.50 | 14.8 | 4.650 | 0.05 | 4.18 |
| [Ni2(m-CB-Homocyclens)(OAc)1.9][PF6]2.1 [CDG038] | 9.58 | 8.8 | 0.03 | – | – | – | 0.09 | 3.010 | 2760 | – | – | – | 0.29 | 19.92 | 18.3 | 9.080 | 0.03 | 8.34 |
| [Mn2(m-cyclam-homocyclen)][MnCl4]2•12H2O [AW047] | 5.380 | 4.18 | 0.07 | – | – | – | 0.08 | 3.770 | 2930 | – | – | – | – | – | – | 7.850 | 0.03 | 6.09 |
| c1cc(CN2CCN3CCNCCN(CC3)CC2)ccc1CN1CCN2CCNCCN(CC2)CC1 [JGL19, p-CB-H2Bcyclens] | 2.900 | 5.81 | 0.05 | – | – | – | 0.20 | 0.590 | 1180 | – | – | – | 0.31 | 8.54 | 17.1 | 1.060 | 0.10 | 2.12 |
| CC(=O)[O-].F[P-](F)(F)(F)(F)F.[Ni+2].c1ccc(CN2CCN3CCCN(CC2)CCN(Cc2ccccc2)CC3)cc1 [AW039, [Ni(Bn2PBCyclen)(C2H3O2)]PF6] | 4.73 | 7.22 | 0.04 | 5.030 | 7.68 | 0.18 | 0.02 | 7.640 | 11700 | 0.17 | 5.610 | 8.56 | 0.14 | 24.41 | 37.2 | – | – | – |
| Clc1cc(CN2CCNCCN3CCN(CC3)CC2)cc(Cl)n1 [OB99, (dcp)1-SB-cyclen] | 7.520 | 21 | 0.01 | – | – | – | 0.28 | 0.310 | 865 | 0.09 | 5.660 | 15.8 | 0.09 | 20.87 | 58.2 | – | – | – |
